Reference: the supplement of paper PMC10627819

What was measured:
S. pneumoniae D39V [1] = assay: fitness (endpoint OD595 vs no drug) (fraction); higher = more growth
How it was run: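 With the first reading as background, OD595 was measured every 30 min for 14 h in 384-well plates kept at 37 °C and inoculated at OD595 0.01. TSB, LB Lennox or CY was the medium. Fitness is the optical density at the transition into stationary phase divided by the robust mean of no-drug control wells, with a cap of 1.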

S. pneumoniae D39V [2] = assay: Bliss interaction score (quartile over a dose matrix) (fitness difference); higher = more antagonism (negative = synergy)
How it was run: (§1)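 Fitness here means normalised growth, inferred for single drugs from the combination data. Growth was OD595 at entry into stationary phase, divided by the plate's robust no-drug mean and capped at 1. The Bliss score is observed minus expected fitness, with the expectation being the product, and its quartiles span technical, biological and donor/recipient replicates.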

B. subtilis 168 = assay: as above
How it was run: as §1

S. aureus DSM 20231 = assay: as above
How it was run: as §1

S. aureus Newman = assay: as above
How it was run: as §1
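Wherever Bliss interaction score (quartile over a dose matrix) is given: first quartile when negative (synergy) and third quartile when positive (antagonism).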
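Wherever fitness (endpoint OD595 vs no drug) is given: OD595 on entry to stationary phase over no-drug wells; at most 1.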

CC[C@H]1OC(=O)[C@H](C)[C@@H](O[C@H]2C[C@@](C)(OC)[C@@H](O)[C@H](C)O2)[C@H](C)[C@@H](O[C@@H]2O[C@H](C)C[C@H](N(C)C)[C@H]2O)[C@](C)(OC)C[C@@H](C)C(=O)[C@H](C)[C@@H](O)[C@]1(C)O [Clarithromycin] + C[n+]1ccc(-c2cc[n+](C)cc2)cc1 [Paraquat]
fitness, S. pneumoniae D39V [1], one replicate
Conditions | first compound 0.007812 µg/mL | first compound 0.01562 µg/mL | first compound 0.03125 µg/mL | first compound 0.0625 µg/mL | first compound 0.125 µg/mL | first compound 0.25 µg/mL
partner 1.5 µg/mL | 0.899 | 0.836 | 0.603 | 0.771 | 0.597 | 0.274
partner 3 µg/mL | 0.918 | 0.871 | 0.62 | 0.788 | 0.684 | 0.324
partner 6 µg/mL | 0.909 | 0.816 | 0.657 | 0.837 | 0.708 | 0.345

fitness, S. pneumoniae D39V [1]
Conditions | first compound 0.07 µg/mL | first compound 0.14 µg/mL | first compound 0.28 µg/mL
partner 1.5 µg/mL | 0.171 | 0.129 | 0.0703
partner 3 µg/mL | 0.171 | 0.103 | 0.0937
partner 6 µg/mL | 0.164 | 0.126 | 0.0698

Conditions | Bliss interaction score
B. subtilis 168 | -0.0322
S. aureus DSM 20231 | -0.0525
S. aureus Newman | -0.0377
S. pneumoniae D39V [2] | 0.0803

CC[C@H]1OC(=O)[C@H](C)[C@@H](O[C@H]2C[C@@](C)(OC)[C@@H](O)[C@H](C)O2)[C@H](C)[C@@H](O[C@@H]2O[C@H](C)C[C@H](N(C)C)[C@H]2O)[C@](C)(OC)C[C@@H](C)C(=O)[C@H](C)[C@@H](O)[C@]1(C)O [Clarithromycin] + Cc1cc(NS(=O)(=O)c2ccc(N)cc2)no1 [Sulfamethoxazol]
fitness, S. pneumoniae D39V [1], one replicate
Conditions | first compound 0.007812 µg/mL | first compound 0.01562 µg/mL | first compound 0.03125 µg/mL | first compound 0.0625 µg/mL | first compound 0.125 µg/mL | first compound 0.25 µg/mL
partner 1 µg/mL | 0.925 | 0.809 | 0.67 | 0.699 | 0.466 | 0.168
partner 2 µg/mL | 0.917 | 0.825 | 0.665 | 0.813 | 0.664 | 0.315
partner 4 µg/mL | 0.899 | 0.805 | 0.661 | 0.613 | 0.465 | 0.17

fitness, S. pneumoniae D39V [1]
Conditions | first compound 0.07 µg/mL | first compound 0.14 µg/mL | first compound 0.28 µg/mL
partner 1 µg/mL | 0.119 | 0.0685 | 0.0468
partner 2 µg/mL | 0.11 | 0.0677 | 0.0381
partner 4 µg/mL | 0.1 | 0.0655 | 0.0459

Conditions | Bliss interaction score
B. subtilis 168 | 0.0784
S. aureus DSM 20231 | 0.0612
S. aureus Newman | -0.0372
S. pneumoniae D39V [2] | 0.0413

CC[C@H]1OC(=O)[C@H](C)[C@@H](O[C@H]2C[C@@](C)(OC)[C@@H](O)[C@H](C)O2)[C@H](C)[C@@H](O[C@@H]2O[C@H](C)C[C@H](N(C)C)[C@H]2O)[C@](C)(OC)C[C@@H](C)C(=O)[C@H](C)[C@@H](O)[C@]1(C)O [Clarithromycin] + Cc1ncc([N+](=O)[O-])n1CCO [Metronidazole]
fitness, S. pneumoniae D39V [1], one replicate
Conditions | first compound 0.007812 µg/mL | first compound 0.01562 µg/mL | first compound 0.03125 µg/mL
partner 1.25 µg/mL | 0.927 | 0.903 | 0.669
partner 2.5 µg/mL | 0.926 | 0.891 | 0.692
partner 5 µg/mL | 0.917 | 0.856 | 0.668

fitness, S. pneumoniae D39V [1]
Conditions | first compound 0.0625 µg/mL | first compound 0.07 µg/mL | first compound 0.125 µg/mL | first compound 0.14 µg/mL | first compound 0.25 µg/mL | first compound 0.28 µg/mL
partner 1.073 µg/mL | 0.729 | – | 0.542 | – | 0.337 | –
partner 1.25 µg/mL | – | 0.149 | – | 0.0801 | – | 0.0663
partner 2.145 µg/mL | 0.734 | – | 0.598 | – | 0.393 | –
partner 2.5 µg/mL | – | 0.168 | – | 0.0889 | – | 0.101
partner 4.29 µg/mL | 0.688 | – | 0.554 | – | 0.257 | –
partner 5 µg/mL | – | 0.178 | – | 0.114 | – | 0.0828

Conditions | Bliss interaction score
B. subtilis 168 | 0.103
S. aureus DSM 20231 | 0.118
S. aureus Newman | -0.0393
S. pneumoniae D39V [2] | 0.106

CC[C@H]1OC(=O)[C@H](C)[C@@H](O[C@H]2C[C@@](C)(OC)[C@@H](O)[C@H](C)O2)[C@H](C)[C@@H](O[C@@H]2O[C@H](C)C[C@H](N(C)C)[C@H]2O)[C@](C)(OC)C[C@@H](C)C(=O)[C@H](C)[C@@H](O)[C@]1(C)O [Clarithromycin] + Cc1onc(-c2ccccc2)c1C(=O)N[C@@H]1C(=O)N2[C@@H]1SC(C)(C)[C@@H]2C(=O)O [Oxacillin]
fitness, S. pneumoniae D39V [1], one replicate
Conditions | first compound 0.007812 µg/mL | first compound 0.01562 µg/mL | first compound 0.03125 µg/mL
partner 0.01 µg/mL | 0.9 | 0.856 | 0.678
partner 0.02 µg/mL | 0.911 | 0.833 | 0.646
partner 0.04 µg/mL | 0.414 | 0.48 | 0.418

fitness, S. pneumoniae D39V [1]
Conditions | first compound 0.0625 µg/mL | first compound 0.07 µg/mL | first compound 0.125 µg/mL | first compound 0.14 µg/mL | first compound 0.25 µg/mL | first compound 0.28 µg/mL
partner 0.005 µg/mL | – | 0.179 | – | 0.128 | – | 0.119
partner 0.01 µg/mL | 0.564 | 0.185 | – | 0.136 | 0.165 | 0.0928
partner 0.02 µg/mL | 0.54 | 0.182 | – | 0.117 | 0.158 | 0.107
partner 0.04 µg/mL | – | – | 0.254 | – | 0.0887 | –

Conditions | Bliss interaction score
B. subtilis 168 | 0.0227
S. aureus DSM 20231 | 0.0328
S. aureus Newman | -0.0384
S. pneumoniae D39V [2] | 0.0844
